According to publication PMC5578090, “Biological Evaluation of Uridine Derivatives of 2-Deoxy Sugars as Potential Antiviral Compounds against Influenza A Virus” (International Journal of Molecular Sciences, 2017):
Entries after “also recorded” stand apart in the source; their conditions may differ. Read-outs that look alike come from different tables or passages of the source.

Tests used:
in vitro = details: dog
[1] = test system: influenza virus A/ostrich/Denmark/725/96 (H5N2); assay: microbe, parasite or virus in culture; assay type: cell-based; details: for IC50: H5N2, MDCK
[2] = test system: HA protein of pandemic human influenza A/H1N1 virus; assay type: cell-based
[3] = test system: influenza virus A/ostrich/Denmark/725/96 (H5N2); assay type: cell-based
[4] = test system: influenza virus A/ostrich/Denmark/725/96 (H5N2); assay type: cell-based; remark: listed apart in the source
influenza virus = details: previously reported; read-out: IC50, anti-influenza virus activity in vitro; cited from earlier work
[5] = 72 h, read-out: IC50 (compound concentration required to inhibit virus plaque production by 50%)
[6] = read-out: p[IC50] = −log[IC50] (converted)

In the case of `CC(=O)O[C@H]1[C@H](C)O[C@H](OC[C@H]2O[C@@H](n3ccc(=O)[nH]c3=O)[C@@H]3OC(C)(C)O[C@@H]32)C[C@@H]1O[Si](C)(C)C(C)(C)C` [Compound 1], the CC50 (in vitro) is reported as 193 µM, the “SI (selectivity index, ratio of CC50 to IC50)” value [1] is reported as 1.10 and the IC50 [1, 5] is reported as 175 ± 8.22 µM. The IC50 [1, 6] was 174 µM.

In the case of `CC(=O)O[C@H]1[C@H](C)O[C@H](OC[C@H]2O[C@@H](n3ccc(=O)n(C(=O)c4ccccc4)c3=O)[C@@H]3OC(C)(C)O[C@@H]32)C[C@@H]1O[Si](C)(C)C(C)(C)C` [Compound 2], the CC50 (in vitro) is reported as 432 µM, the “Mature form of HA protein” value [2] is reported as “not detected” and the “Yield of HA protein in infected cells” value [2] is reported as “reduced the formation of HA glycoprotein in a dose-dependent manner; also recorded: reduced by compound 2 in a dose-dependent manner; also recorded: dose-dependent decrease of HA glycoprotein production”. The “Reduction of virus-induced cytopathic effect (antiviral activity)” value (“Reduction” for short) [3] was “significantly reduced the CPE”, the “Average size and plaque number” value [1] was “markedly reduced in a dose-dependent manner” and the “SI (selectivity index, ratio of CC50 to IC50)” value [1] was 5.27. For the same molecule, the IC50 [1, 5] was 82 ± 6.81 µM, the IC50 [1, 6] was 81.3 µM and the “Inhibition of virus propagation depending on time of addition” value [4] was “inhibited the propagation of influenza virus only when it is added to the cells after viral infection”.

With `CC1(C)O[C@@H]2[C@H](O1)[C@@H](CO[C@@H]1C[C@@H](OCc3ccccc3)[C@H](OCc3ccccc3)[C@@H](COCc3ccccc3)O1)O[C@H]2n1ccc(=O)[nH]c1=O` [Compound 3] the CC50 (in vitro) was 407 µM, the “Reduction” value [3] was “significantly reduced the CPE” and the “SI (selectivity index, ratio of CC50 to IC50)” value [1] was 4.07. For the same molecule, the IC50 [1, 5] was 100 ± 9.84 µM and the IC50 [1, 6] was 100 µM.

In the case of `CC1(C)O[C@@H]2[C@H](O1)[C@@H](CO[C@@H]1C[C@@H](OCc3ccccc3)[C@H](OCc3ccccc3)[C@@H](COCc3ccccc3)O1)O[C@H]2n1ccc(=O)n(C(=O)c2ccccc2)c1=O` [Compound 4], the CC50 (in vitro) is reported as 480 µM, the “Reduction” value [3] is reported as “significantly reduced the CPE” and the “SI (selectivity index, ratio of CC50 to IC50)” value [1] is reported as 4.85. The IC50 [1, 5] was 99 ± 5.23 µM and the IC50 [1, 6] was 100 µM.

With `CC1(C)O[C@@H]2[C@H](O1)[C@@H](CO[C@@H]1C[C@@H](OCc3ccccc3)[C@H](OCc3ccccc3)[C@@H](CO[Si](C)(C)C(C)(C)C)O1)O[C@H]2n1ccc(=O)[nH]c1=O` [Compound 5] the CC50 (in vitro) was 150 µM, the “SI (selectivity index, ratio of CC50 to IC50)” value [1] was 1.56 and the IC50 [1, 5] was 96 ± 7.64 µM. It also gave an IC50 [1, 6] of 97.7 µM.

In the case of `CC(=O)OC[C@H]1OC(OC[C@H]2O[C@@H](n3ccc(=O)[nH]c3=O)[C@@H]3OC(C)(C)O[C@@H]32)C[C@@H](OC(C)=O)[C@@H]1OC(C)=O` (some centres unmarked) [Compound 6], the CC50 (in vitro) is reported as 620 µM, the “SI (selectivity index, ratio of CC50 to IC50)” value [1] is reported as 1.08 and the IC50 [1, 5] is reported as 575 ± 17.2 µM. For the same molecule, the IC50 [1, 6] was 575 µM.

For `CC1(C)O[C@@H]2[C@H](O1)[C@@H](CO[C@@H]1C[C@@H](O)[C@H](O)[C@@H](CO)O1)O[C@H]2n1ccc(=O)[nH]c1=O` [Compound 7], the CC50 (in vitro) was 828 µM, the “Cytotoxicity (in words)” value (MDCK cells) was “low” and the “SI (selectivity index, ratio of CC50 to IC50)” value [1] was 1.15. The IC50 [1, 5] was 721 ± 23.2 µM and the IC50 [1, 6] was 724 µM.

With `CC1(C)O[C@@H]2[C@H](O1)[C@@H](CO[C@@H]1C[C@@H](O)[C@H](O)[C@@H](CO)O1)O[C@H]2n1ccc(=O)n(Cc2ccccc2)c1=O` [Compound 8] the CC50 (in vitro) was 669 µM, the “Cytotoxicity (in words)” value (MDCK cells) was “low” and the “SI (selectivity index, ratio of CC50 to IC50)” value [1] was 1.93. It also gave an IC50 [1, 5] of 346 ± 10.5 µM and an IC50 [1, 6] of 347 µM.

For `O=c1ccn([C@@H]2O[C@H](CO[C@@H]3C[C@@H](O)[C@H](O)[C@@H](CO)O3)[C@@H](O)[C@H]2O)c(=O)[nH]1` [Compound 9], the CC50 (in vitro) was 800 µM, the “Cytotoxicity (in words)” value (MDCK cells) was “low” and the “SI (selectivity index, ratio of CC50 to IC50)” value [1] was 1.95. It also gave an IC50 [1, 5] of 410 ± 11.2 µM and an IC50 [1, 6] of 407 µM.

For `CC1(C)O[C@@H]2[C@H](O1)[C@@H](CO[C@@H]1C[C@@H](OCc3ccccc3)[C@H](OCc3ccccc3)[C@@H](CO[Si](C)(C)C(C)(C)C)O1)O[C@H]2n1ccc(=O)n(C(=O)c2ccccc2)c1=O` [IW3, reference compound], the CC50 (in vitro) was 640 µM, the “SI (selectivity index, ratio of CC50 to IC50)” value [1] was 8.89 and the IC50 [1, 5] was 72 ± 5.2 µM. The IC50 (influenza virus) was 72 µM.

In the case of `CC1(C)O[C@@H]2[C@H](O1)[C@@H](CO[C@@H]1C[C@@H](OCc3ccccc3)[C@H](OCc3ccccc3)[C@@H](CO)O1)O[C@H]2n1ccc(=O)n(C(=O)c2ccccc2)c1=O` [IW7, reference compound], the CC50 (in vitro) is reported as 123 µM, the “SI (selectivity index, ratio of CC50 to IC50)” value [1] is reported as 1.95 and the IC50 [1, 5] is reported as 63 ± 4.17 µM. For the same molecule, the IC50 (influenza virus) was 63 µM.

`CCC(CC)O[C@@H]1C=C(C(=O)O)C[C@H](N)[C@H]1NC(C)=O` [Oseltamivir carboxylate, reference compound] showed a CC50 (in vitro) of over 100 µM and an IC50 [1, 5] of about 0.15 µM.
